Key:
TRPV4EC channels = assay: TRPV4 sparklet activity in human PMVECs exposed to acute HR; type: cell-based; design: dose or concentration left out as unconfirmed; details: 1 h hypoxia + 10 min reoxygenation
Protocol: TRPV4 sparklets were assessed as increases in fluorescence relative to baseline fluorescence, obtained by averaging 10 quiescent images prior to stimulation. TRPV4 Ca^2+ sparklets were assessed based on previously established methods.^9,11 Average TRPV4 sparklet activity is defined as NPO, where N is the number of TRPV4 channels per site and PO is the open-state probability of the channel. NPO was calculated using the Single Channel Search module of Clampfit. quantal amplitudes derived from all-points histograms (0.3 AF/F0 for Fluo-4-loaded Pas),^12 and the following equation: NPO=(Tlevel1+2Tlevel2+3Tlevel3+4Tlevel4)/Ttotal, where T represents the dwell time at each quantal level and Ttotal is the total recording duration. […]
Ca^2+ imaging in human and mouse PMVECs was performed using an Andor Dragonfly 505 spinning-disk confocal imaging system with Borealis illumination and an Integrated Laser Engine solid-state laser source (Andor Technology, Belfast, UK), coupled with a Leica Dmi8 inverted microscope (Leica) and 63× objective (NA 1.47)^13 Images were acquired at 30 frames per second using Fusion 2.3 (Oxford Instruments, Belfast, UK) and an electron-multiplying CCD camera (iXon888). Calbryte 520 AM was excited at 488 nm, and emitted fluorescence was captured using a 525/50 bandpass emission filter. […]

[1] = test system: murine primary pulmonary microvascular endothelial cells (PMVECs); assay: Proinflammatory cytokine release from murine PMVECs after hypoxia-reoxygenation; type: cell-based; details: 6 h hypoxia + 4 h reoxygenation, AR-C 10 mM, 5 μM
Protocol: We used 6 hours hypoxia followed by 4 hours normoxia/reoxygenation (HR) in murine primary pulmonary microvascular endothelial cells (PMVECs) as a surrogate model of lung IR. Control cells were exposed to 10 hours normoxia (N). PMVECs were treated with vehicle or P2Y2R inhibitor AR-C ([…], 6 hrs). The concentrations of chemokine (C—X—C motif) ligand 1 (CXCL1) and monocvte chemoattractant protein-1 (MCP-1) in the culture media was measured using a mouse keratinocyte-derived chemokine (KC)/CXCL1 Quantikine ELISA kit (R&D Systems, Minneapolis, MN) and multiplex cytokine panel assay (Bio-Rad Laboratories, Hercules, CA), respectively. KC and MCP-1 levels were increased in PMVECs exposed to HR. Treatment of PMVECs with P2Y2R inhibitor AR-C reduced the levels of KC (FIG. 13A) and MCP-1 (FIG. 13B) in the culture media.

TRPV4 = details: cited from earlier work

Compound | HR-induced increase in TRPV4EC sparklets (TRPV4EC channels) | KC level in the culture media [1] | MCP-1 level in the culture media [1] | reversibility of TRPV4 inhibition (TRPV4)
Cc1ccc2c(c1)C=Cc1cc(C)ccc1C2c1cn(Cc2ccc(C(=O)Nc3nn[nH]n3)o2)c(=O)[nH]c1=S [ARC, AR-C 118925XX] | blocked | reduced | reduced | 
O=C(NC1(c2ccccc2)CC1)c1c(CN2CCC(N3CCCCC3)CC2)c(-c2cccc(C(F)(F)F)c2)nc2cc(Br)ccc12 [GSK219, GSK2193874] |  |  |  | reversible

From patent US20260284082A1, “TARGETING THE PANX1-P2Y2R-TRPV4 PATHWAY TO TREAT LUNG ISCHEMIA-REPERFUSION INJURY” (UNIVERSITY OF VIRGINIA PATENT FOUNDATION, priority 2023, published 2026)
